# Laboratory results published in patent US20040197411A1, “Acceptably non-hygroscopic formulation intermediate comprising a hygroscopic drug” (priority 2002, published 2004).
# Test: Moisture sorption analysis by dynamic vapor sorption (DVS)
# Assay type: physicochemical
# Conditions: for hygroscopicity and deliquescence: general statement, conditions not given
# Method: Compound 1 was prepared according to processes described in WO 01/72703. A sample of Compound 1 in substantially dry, amorphous form was subjected to moisture sorption analysis. Dynamic vapor sorption (DVS) was used to determine mass increase (relative to dry mass) was monitored over an adsorption range of 10-70% relative humidity (RH) in increments of 10%. As shown by the moisture sorption isotherm represented in FIG. 1, Compound 1 is hygroscopic.
Compound,hygroscopicity and deliquescence,"moisture sorption isotherm (mass increase relative to dry mass) (substantially dry, amorphous form, 10-70% RH in increments of 10%, FIG. 1)"
"CC(=N)NCCSC[C@](C)(N)C(=O)O.Cl.Cl [Compound 1, S-[2-[(1-iminoethyl)amino]ethyl]-2-methyl-L-cysteine dihydrochloride]",extremely hygroscopic and deliquescent,hygroscopic
CC(=N)NCCSC[C@](C)(N)C(=O)O [S-[2-[(1-iminoethyl)amino]ethyl]-2-methyl-L-cysteine],extremely hygroscopic and deliquescent,
